Assay results as given in US6291488A, “Preventing protozoal infections” (Glaxo Wellcome Inc., priority 1992, dated 2001).
Where “and” joins values, the source holds several entries; their conditions need not be identical. Equal values may be shown once.

Experiments:
[1] = system: P. falciparum W-2 (multi-drug resistant W-2 clone); assay: In vitro drug combination sensitivity (Desjardins hypoxanthine incorporation), W-2 clone; type: cell-based; details: drug combined with compound of Example 1, positive = synergistic, negative = antagonism, 0 = additive
Experimental: (§1) Antimalarial activity in this system is assessed by inhibition of radiolabelled hypoxanthine incorporation into parasites by graded concentrations of drugs.
(§2) The drugs tested and their solvents are listed below:
(§3) In order to study drug combinations, drug solutions at starting concentrations were combined in various ratios and 1:5,1:2,2:1 and 5:1). […] Serial 1:3 dilutions of the drugs with media were made to fill the 96-well microtitre plate using a 12-channel pipetter. To evaluate drugs classified as dihydrofolic acid reductase (DHFR) inhibitors, modified culture medium was used which contained only physiologic concentrations of folic acid and PABA.
(§4) Individual IC50 s were calculated using the "MINSQ" program from Micromath Scientific Software. Each set of paired data was fitted to the hyperbolic tangent function used by Desjardins.
(§5) An isobologram was constructed by fitting the data to the equation:
(§6) Y1-[Xi /(Xi +e^I *(1-Xi))]
(§7) I=interaction parameter indicating degree of reversal
Positive values of I indicated a synergistic combination, negative values indicated antagonism and I=O indicated additive interaction. […]

[2] = system: P. falciparum D-6 (drug-sensitive but melfloquine resistant D-6 clone); assay: In vitro drug combination sensitivity (Desjardins hypoxanthine incorporation), D-6 clone; type: cell-based; details: drug combined with compound of Example 1, positive = synergistic, negative = antagonism, 0 = additive
Experimental: as §1, §2, §3, §4, §5, §6, §7
(§8) Positive values of I indicated a synergistic combination, negative values indicated antagonism and I=O indicated additive interaction.
(§9) The optimum ratio of the combination with proguanil was estimated for each of the three strains of malaria parasite by determining the ratio of the IC50 of proguanil to the IC50 of the compound of Formula (II).

[3] = system: P. falciparum C2B (isolate resistant to the compound of example 1); type: cell-based; details: drug combined with compound of Example 1, positive = synergistic, negative = antagonism, 0 = additive
Experimental: as §1, §2, §3, §4, §5, §6, §7, §8, §9

T. gondii C56 strain = assay: Anti-Toxoplasma activity in vivo, mouse model of T. gondii; set-up: species or system T. gondii; CBA/CA mice; details: oral gavage; for Mean Time to Death: 10 days
Source text: Comparison of anti-Toxoplasma activities in vivo of compound of Example 1, proguanil and combinations thereof
Activities of the compounds and combinations were examined in a mouse model of T. gondii, using the increase in time to death and percent survival of the mice as measures of drug activity.
Groups of 10, 20 gm CBA/CA mice were infected orally by gavage with 6 cysts of the C56 strain of T. gondii and drug treatment was started 3 days later and continued for 10 day. All drugs were administered orally by gavage. The following groups were examined:
All animals were examined twice daily for 30 days and all deaths recorded.

Pneumocystis = assay: Anti-Pneumocystis activity in vivo, scid mouse model of Pneumocystis pneumonia; set-up: species or system P. carinii; scid mice; key to Mean Score ±SE: score 0 = no infection, +4 = very heavy infection; details: for number of mice with SCORE 0: 0 = no infection; for % of Control: mean score
Experimental: Comparison of anti-Pneumocystis activities in vivo of compound of Example 1 proguanil and combinations thereof
Activities of the compounds and combinations were examined in a scid mouse model of Pneumocystis pneumonia.
The level of infection of mice in each group was measured using standard lung impression smears and immunofluorescence tests. A score was assigned to each mouse where 0=no infection and +4=very heavy infection.

[4] = 25 mg/kg p.o. daily, +4 = very heavy infection

CC1(C)N=C(N)N=C(N)N1OCCCOc1cc(Cl)c(Cl)cc1Cl [WR99210]
I (interaction parameter) [1]: 0.02

Cc1cc(NS(=O)(=O)c2ccc(N)cc2)no1 [Sulfamethoxazole]
I (interaction parameter) [1]: 2.75

CC1(C)N=C(N)N=C(N)N1c1ccc(Cl)cc1 [Cycloguanil]
I (interaction parameter) [2]: 1.66 | I (interaction parameter) [1]: 2.21

COc1cc(Cc2cnc(N)nc2N)cc(OC)c1OC [Trimethoprim]
I (interaction parameter) [3]: 0.58 | I (interaction parameter) [1]: 1.27

CCN(CC)CCCC(C)Nc1ccnc2cc(Cl)ccc12 (centres unmarked) [Chloroquine]
I (interaction parameter) [2]: -1.40 | I (interaction parameter) [1]: -1.84

OC(c1cc(C(F)(F)F)nc2c(C(F)(F)F)cccc12)C1CCCCN1 (centres unmarked) [Mefloquine]
I (interaction parameter) [1]: -1.19

CCn1cc(C(=O)O)c(=O)c2cc(F)c(N3CCNCC3)cc21 [Norfloxacin]
I (interaction parameter) [1]: 1.02

[H]/N=C(\N/C(=N/[H])Nc1ccc(Cl)cc1)NC(C)C [Proguanil]
I (interaction parameter) [2]: 2.56 | survivors (T. gondii C56 strain; 25 mg/kg): no survivors | toxicity to mice (T. gondii C56 strain; 25 mg/kg): exhibits signs of toxicity | Mean Time to Death (T. gondii C56 strain; 25 mg/kg): 9.0 days and 9 days | I (interaction parameter) [3]: 2.56 | Mean Score ±SE (Pneumocystis; 25 mg/kg p.o. daily): 3.80 ± 0.13 | No. Infected/No. Examined (Pneumocystis; 25 mg/kg p.o. daily): 10/10 | number of mice with SCORE +1 (Pneumocystis; 25 mg/kg p.o. daily): 0 | number of mice with SCORE +3 (Pneumocystis; 25 mg/kg p.o. daily): 0 | number of mice with SCORE +4 (Pneumocystis; 25 mg/kg p.o. daily): 2 | number of mice with SCORE 0 (Pneumocystis; 25 mg/kg p.o. daily): 0 | number of mice with SCORE +4 (Pneumocystis; [4]): 8 | prophylaxis of PCP in the scid mouse (Pneumocystis; alone at 25 mg/kg/day): ineffective | % of Control (Pneumocystis; 25 mg/kg p.o. daily): 85%

Oc1ncnc2[nH]ncc12 [Allopurinol]
I (interaction parameter) [2]: 0.43 | I (interaction parameter) [1]: 1.14

CCc1nc(N)nc(N)c1-c1ccc(Cl)cc1 [Pyrimethamine]
I (interaction parameter) [3]: -0.48 | I (interaction parameter) [1]: 0.36

CC(C)NC(=N)NC(=N)NOCCCOc1cc(Cl)c(Cl)cc1Cl [PS-15]
I (interaction parameter) [2]: -0.74

Cc1nc(C)c(Cl)c(O)c1Cl [Clopidol]
I (interaction parameter) [2]: 0.73

C[C@H]1[C@H](OC(=O)CCC(=O)O)O[C@@H]2O[C@@]3(C)CC[C@H]4[C@H](C)CC[C@@H]1[C@@]24OO3 [Artesunic acid]
I (interaction parameter) [2]: -0.18

Nc1ccc(S(=O)(=O)c2ccc(N)cc2)cc1 [Dapsone]
I (interaction parameter) [1]: -0.39

COc1cc(NC(C)CCCN)c2ncccc2c1 (centres unmarked) [Primaquine]
I (interaction parameter) [1]: -0.79

CN(C)C1C(=O)C(C(N)=O)=C(O)C2(O)C(=O)C3=C(O)c4c(O)cccc4C(C)(O)C3CC12 (centres unmarked) [Tetracycline]
I (interaction parameter) [2]: 1.11 | I (interaction parameter) [1]: 1.27

O=C1C(O)=C([C@H]2CC[C@H](c3ccc(Cl)cc3)CC2)C(=O)c2ccccc21 [Atovaquone, 2-[4-(4-chlorophenyl)cyclohexyl]-3-hydroxy-1,4-naphthoquinone]
percent survival (T. gondii C56 strain; 10 mg/kg): 10% | Mean Time to Death (T. gondii C56 strain; 10 mg/kg): 20.1 days | percent survival (T. gondii C56 strain; 25 mg/kg): 10% | Mean Time to Death (T. gondii C56 strain; 25 mg/kg): 24.1 days | Mean Score ±SE (Pneumocystis; 25 mg/kg p.o. daily): 3.10 ± 0.17 | No. Infected/No. Examined (Pneumocystis; 25 mg/kg p.o. daily): 10/10 | number of mice with SCORE +1 (Pneumocystis; 25 mg/kg p.o. daily): 0 | number of mice with SCORE +3 (Pneumocystis; 25 mg/kg p.o. daily): 1 | number of mice with SCORE +4 (Pneumocystis; 25 mg/kg p.o. daily): 7 | number of mice with SCORE 0 (Pneumocystis; 25 mg/kg p.o. daily): 0 | number of mice with SCORE +4 (Pneumocystis; [4]): 2 | Mean Score ±SE (Pneumocystis; 50 mg/kg p.o. daily): 2.50 ± 0.16 | No. Infected/No. Examined (Pneumocystis; 50 mg/kg p.o. daily): 10/10 | number of mice with SCORE +1 (Pneumocystis; 50 mg/kg p.o. daily): 0 | number of mice with SCORE +3 (Pneumocystis; 50 mg/kg p.o. daily): 5 | number of mice with SCORE +4 (Pneumocystis; 50 mg/kg p.o. daily): 5 | number of mice with SCORE 0 (Pneumocystis; 50 mg/kg p.o. daily): 0 | number of mice with SCORE +4 (Pneumocystis; 50 mg/kg p.o. daily, +4 = very heavy infection): 0 | infection score (in words) (Pneumocystis; dosed alone): reductions in the infection score | % of Control (Pneumocystis; 25 mg/kg p.o. daily): 84% | % of Control (Pneumocystis; 50 mg/kg p.o. daily): 68%
